Results taken from patent US8063191B2, “Polynucleotides encoding for fusion proteins with natriuresis activity” (Mayo Foundation for Medical Education and Research, priority 2005, dated 2011).

System: normal dogs that were anesthetized
Assay: Hemodynamic and renal properties of intravenous LA-ANP versus ANP infusion in anesthetized normal dogs
Format: in vivo, dog
Settings: for urinary sodium excretion: baseline 47.0±18.9; for distal fractional sodium reabsorption: baseline 97.2±0.9
Method: Studies comparing LA-ANP to ANP were performed in normal dogs that were anesthetized. Equimolar concentrations of a low dose (2 pmol/kg/min) of LA-ANP and ANP were infused intravenously, where ANP was administered at a threshold concentration required to activate cyclic guanosine monophosphate. Equimolar concentrations of a high dose of LA-ANP and ANP (33 pmol/kg/min.) were also infused intravenously. Infusion of ANP or LA-ANP for 45 minutes was performed following a 30 minute baseline period, which was preceded by a 60 minute equilibrium period. Infusion was followed by a 30 minute wash-out period and three recovery (Rec) periods of 30 minutes each. Hemodynamic and renal parameters were measured at baseline (BL), during 45 minutes of infusion, and 120 minutes post-infusion.

[1] = low dose 2 pmol/kg/min i.v., at 120 minutes post-infusion
[2] = low dose 2 pmol/kg/min i.v., during infusion

| Compound | natriuresis (in words) [1] | glomerular filtration rate (in words) [2] | mean arterial pressure (in words) [2] | natriuresis (in words) [2] | diuresis (in words) (low dose 2 pmol/kg/min i.v., with infusion) | diuretic effect as compared to ANP (equimolar i.v. infusion) | natriuretic effect as compared to ANP (equimolar i.v. infusion) | glomerular filtration rate, compared to high dose of ANP (high dose 33 pmol/kg/min i.v.) | mean arterial pressure, compared to high dose of ANP (high dose 33 pmol/kg/min i.v.) | urinary sodium excretion (low dose 2 pmol/kg/min i.v., at 120 minutes post-infusion, p<0.01) | distal fractional sodium reabsorption [1] | urinary sodium excretion (low dose 2 pmol/kg/min i.v., during 45 min infusion, p<0.01) | renal blood flow, compared to low dose ANP [2] | diuresis (urine flow) (low dose 2 pmol/kg/min i.v., during infusion, baseline 0.34±0.08, p<0.01) | distal fractional sodium reabsorption [2] | distal fractional sodium reabsorption, overall, compared to low dose of ANP (low dose 2 pmol/kg/min i.v., p<0.01) |
| --- | --- | --- | --- | --- | --- | --- | --- | --- | --- | --- | --- | --- | --- | --- | --- | --- |
| CC[C@H](C)[C@@H]1NC(=O)[C@H](CCCNC(=N)N)NC(=O)[C@H](CC(=O)O)NC(=O)[C@H](CCSC)NC(=O)[C@H](CCCNC(=N)N)NC(=O)CNC(=O)CNC(=O)[C@H](Cc2ccccc2)NC(=O)[C@@H](NC(=O)[C@H](CO)NC(=O)[C@H](CO)NC(=O)[C@H](CCCNC(=N)N)NC(=O)[C@H](CCCNC(=N)N)NC(=O)[C@H](CC(C)C)NC(=O)[C@@H](N)CO)CSSC[C@@H](C(=O)N[C@@H](CC(N)=O)C(=O)N[C@@H](CO)C(=O)N[C@@H](Cc2ccccc2)C(=O)N[C@@H](CCCNC(=N)N)C(=O)N[C@@H](Cc2ccc(O)cc2)C(=O)O)NC(=O)CNC(=O)[C@H](CC(C)C)NC(=O)CNC(=O)[C@H](CO)NC(=O)[C@H](CCC(N)=O)NC(=O)[C@H](C)NC(=O)CNC1=O [ANP, reference compound] | not increased | No change | No change | not increased | no significant change |  |  |  |  |  |  |  |  |  |  |  |
| SLRRSSCFGGRMDRIGAQSGLGCNSFRYRITA-REDKQGWA (SLRRSSCFGGRMDRIGAQSGLGCNSFRYRITAREDKQGWA; listed as Homo sapiens) [LA-ANP] |  | No change | No change |  |  | greater diuretic effect | greater natriuretic effect | increased | decreased | 119.2±34.2 μEq/min. | 95.3±0.9% | 88.4±17.5 μEq/min. | increased | 1.08 ± 0.23 mL/min | 96.0±0.6% | significantly decreased |
